The target in one data set is CDK6/Cyclin D1 (Homo sapiens (Human), UniProt Q00534). Put plainly: CDK6/CyclinD1 enzymatic activity assay (TR-FRET). Conditions: CDK6/Cyclin D1 1 nM, ATP 250 μM, read-out: CDK6_D1 IC50. Format: biochemical. The gist of the method: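 Insect-cell-expressed CDK6/Cyclin D1 (1 nM) phosphorylated ULight-4E-BP1 (100 nM) with 250 μM ATP in HEPES pH 7.4 buffer. After 20 min compound preincubation, reactions were started with 10 mM MgCl2 and run 60 min at 37 °C. EDTA-quenched samples were read by TR-FRET with Eu-anti-P-4E-BP1; IC50 from 9-dose 4-parameter fits.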
CDK6/Cyclin D1, sequence (Q00534 whole entry): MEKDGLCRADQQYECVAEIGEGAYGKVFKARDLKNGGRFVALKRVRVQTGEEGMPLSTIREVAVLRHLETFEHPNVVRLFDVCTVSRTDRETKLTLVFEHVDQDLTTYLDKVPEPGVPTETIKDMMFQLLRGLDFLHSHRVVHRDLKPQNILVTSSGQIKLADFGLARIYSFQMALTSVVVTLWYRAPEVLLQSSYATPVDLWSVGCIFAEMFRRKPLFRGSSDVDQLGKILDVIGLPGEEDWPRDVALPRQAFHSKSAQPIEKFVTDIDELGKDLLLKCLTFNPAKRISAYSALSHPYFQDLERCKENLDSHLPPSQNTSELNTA
CDK6/Cyclin D1, sequence (P24385 whole entry partner): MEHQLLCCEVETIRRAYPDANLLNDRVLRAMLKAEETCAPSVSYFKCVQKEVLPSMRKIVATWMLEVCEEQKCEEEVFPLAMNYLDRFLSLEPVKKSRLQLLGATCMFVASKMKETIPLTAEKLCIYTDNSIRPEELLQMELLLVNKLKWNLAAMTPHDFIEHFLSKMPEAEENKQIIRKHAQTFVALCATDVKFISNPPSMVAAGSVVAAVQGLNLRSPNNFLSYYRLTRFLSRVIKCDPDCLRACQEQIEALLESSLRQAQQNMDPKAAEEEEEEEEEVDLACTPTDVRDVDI
(TR-FRET usually uses a lanthanide donor and a delayed reading to cut background.)

For another data set, the target named is CDK4/Cyclin D1 (Homo sapiens (Human), UniProt P11802). In words: CDK4/CyclinD1 enzymatic activity assay (TR-FRET). Format: biochemical. Conditions: CDK4/CyclinD1 1 nM, ATP 2 mM, read-out: CDK4_D1 IC50. The method in brief:
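Insect-cell CDK4/Cyclin D1 (1 nM) with ULight-4E-BP1 (100 nM) and 2 mM ATP in HEPES pH 7.4 buffer, preincubated 20 min with compound (9-dose, 3-fold dilutions); 10 mM MgCl2 started the reaction, run 60 min at 37 °C. EDTA/Eu-anti-phospho-4E-BP1 TR-FRET detection; IC50 from 4-parameter Hill fit.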

Data set [1] deals with MCF7 adenocarcinoma cell line. Put plainly: Cell proliferation studies in MCF7 cells (ATP-Lite). Conditions: Homo sapiens, 240 h, 10 days incubation, cell viability by ATP-Lite luminescence, read-out: PROLIFERATION_CTG_MCF7 IC50. It counts as cell-based. The gist of the method: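 MCF7 cells, seeded at 100 or 200 cells/well, were exposed for 10 days at 37 °C to a 9-point, 3-fold dilution series in quadruplicate, with media exchange and re-dosing on day 5. Viability was read by ATP-Lite luminescence, normalized to background and DMSO, and fitted for IC50.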

Data set [2] in a line: Brain-to-plasma ratio determination in Sprague-Dawley rats. It counts as in vivo. As to conditions: rat, male Sprague-Dawley rats, four hours after a single oral dose (3, 4, 5, or 10 mg/kg). On the procedure: Example B: Brain-to-Plasma Ratio Determination in Sprague-Dawley Rats
The brain-to-plasma ratio (Kp) was determined in male Sprague-Dawley rats (7-9 weeks old) four hours after a single oral dose. Rats were acclimated and given free access to standard rodent chow and water throughout the entire study. Test articles were formulated as a solution at 0.3, 0.4, 0.5, or 1.0 mg/mL in a vehicle comprised of 10:15:75 (v:v:v) dimethylacetamide (DMA):Solutol HS15:water and delivered orally at a rate of 10 mL/kg to three rats to achieve final doses of 3, 4, 5, or 10 mg/kg, respectively. At 4 hours post-dose, blood samples were collected via jugular vein cannula into tubes containing K2EDTA as the anticoagulant and stored on ice. Blood samples were then centrifuged at 4° C. at 6000 rpm for 5 minutes, and the resulting plasma was placed into tubes and stored frozen at −80° C. until analysis. Whole brain samples were also collected at 4 hours post-dose. The weight of each brain was measured and recorded, and samples were immediately stored on dry ice. Brain samples were then transferred to storage at −80° C. until analysis.
Prior to analysis, brain samples were combined with water (4 mL/1 gram of brain) and homogenized. Prior to injection, plasma and brain homogenate samples and standards were prepared for analysis by precipitation with acetonitrile or 1:1 (v:v) methanol:acetonitrile. Samples were then thoroughly mixed, centrifuged at 4000 rpm for 15 minutes, and the resulting supernatant was transferred for analysis. Test article concentrations in plasma and brain homogenate were then determined by LC-MS/MS and quantified against calibration standards prepared to known concentrations in matched blank (analyte-free) biological matrix. The Kp was then determined by dividing the dilution-corrected brain concentration by the plasma concentration from each rat. A brain density of 1 gram/mL was assumed for all calculations.

In general, Kp refers to the ratio of the level in a tissue or fluid to that in plasma or blood.

Some results are limits rather than exact numbers.

CDK4/Cyclin D1, sequence (P11802 whole entry): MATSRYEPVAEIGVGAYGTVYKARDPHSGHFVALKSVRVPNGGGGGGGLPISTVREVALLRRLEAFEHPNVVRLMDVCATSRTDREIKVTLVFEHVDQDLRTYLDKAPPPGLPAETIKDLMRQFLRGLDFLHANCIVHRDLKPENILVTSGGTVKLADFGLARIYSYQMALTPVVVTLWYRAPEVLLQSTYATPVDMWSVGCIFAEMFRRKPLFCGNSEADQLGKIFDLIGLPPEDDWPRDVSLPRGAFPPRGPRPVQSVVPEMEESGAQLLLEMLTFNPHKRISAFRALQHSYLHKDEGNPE
CDK4/Cyclin D1, sequence (P24385 whole entry partner): as the sequence (P24385 whole entry partner) above

`CN1CCC(c2ccc(Nc3ncc(F)c(-c4cc5c(s4)C4(CC4)CN(C)C5=O)n3)nc2)CC1` [Example 29, 2′-(5-Fluoro-2-((5-(1-methyl-piperidin-4-yl)pyridin-2-yl)amino)pyrimidin-4-yl)-5′-methyl-5′,6′-dihydro-4′H-spiro[cyclo-propane-1,7′-thieno[3,2-c]pyridin]-4′-one]: the results for the IC50 (on CDK6/Cyclin D1; on CDK4/Cyclin D1; in data set [1]) were 0.02 to 0.2 µM, at most 0.02 µM and 0.02 to 0.2 µM, respectively. Besides, the Kp at 4 h in data set [2] lay in the range of 1 to 3.
In the case of `Cc1c(-c2nc(Nc3ccc(N4CC5(CCN(C)C5)C4)cn3)ncc2F)sc2c1C(=O)N(C)CC21CC1` [Example 35], the IC50 (at CDK6/Cyclin D1; at CDK4/Cyclin D1; in data set [1]) was at most 0.02 µM in each case. The Kp at 4 h in data set [2] lay within 1 to 3.
Regarding `CCN1C[C@H]2CN(c3ccc(Nc4ncc(F)c(-c5sc6c(c5C)C(=O)N(C)CC65CC5)n4)nc3)C[C@@H]2C1` [Example 39, 2′-(2-((5-((3aS,6aS)-5-Ethylhexahydropyrrolo[3,4-c]pyrrol-2(1H)-yl)pyridin-2-yl)amino)-5-fluoropyrimidin-4-yl)-3′,5′-dimethyl-5′,6′-dihydro-4′H-spiro[cyclopropane-1,7′-thieno[3,2-c]pyridin]-4′-one], the IC50 on CDK6/Cyclin D1 is at most 0.02 µM; on CDK4/Cyclin D1, at most 0.02 µM; in data set [1], 0.02 to 0.2 µM. For the same compound, the Kp at 4 h in data set [2] was in the range of 1 to 3.
On to `CCN1CC2(C1)CN(c1ccc(Nc3ncc(C)c(-c4cc5c(s4)C4(CC4)CN(C)C5=O)n3)nc1)C2` [Example 41, 2-[2-[[5-(6-Ethyl-2,6-diazaspiro[3.3]heptan-2-yl)pyridin-2-yl]amino]-5-methylpyrimidin-4-yl]-5-methylspiro[6H-thieno[3,2-c]pyridine-7,1′-cyclopropane]-4-one], for which the IC50 (on CDK6/Cyclin D1; on CDK4/Cyclin D1; in data set [1]) was at most 0.02 µM in each case. Also, the Kp at 4 h in data set [2] was under 1.
For `CN1CCC(c2ccc(Nc3ncc(F)c(-c4cc5c(s4)C4(CCC4)CN(C)C5=O)n3)nc2)CC1` [Example 47, 2′-(5-Fluoro-2-((5-(1-methyl-piperidin-4-yl)pyridin-2-yl)amino)pyrimidin-4-yl)-5′-methyl-5′,6′-dihydro-4′H-spiro[cyclobutane-1,7′-thieno[3,2-c]pyridin]-4′-one], the values for the IC50 (on CDK6/Cyclin D1; at CDK4/Cyclin D1; in data set [1]) were 0.02 to 0.2 µM, at most 0.02 µM and 0.02 to 0.2 µM, respectively. Further, the Kp at 4 h in data set [2] is 1 to 3.
For `Cc1c(-c2nc(Nc3ccc(C4CCN(C)CC4)cn3)ncc2F)sc2c1C(=O)N(C)CC21CCC1` [Example 48, 2′-(5-Fluoro-2-((5-(1-methyl-piperidin-4-yl)pyridin-2-yl)amino)pyrimidin-4-yl)-3′,5′-dimethyl-5′,6′-dihydro-4′H-spiro[cyclobutane-1,7′-thieno[3,2-c]pyridin]-4′-one], the IC50 on CDK6/Cyclin D1 was at most 0.02 µM; on CDK4/Cyclin D1 it was at most 0.02 µM; in data set [1], 0.02 to 0.2 µM. Besides, the Kp at 4 h in data set [2] is at least 3.
`CN1CCN(c2ccc(Nc3ncc(F)c(-c4cc5c(s4)C4(CCC4)CN(C)C5=O)n3)nc2)CC1` [Example 50, 2′-(5-Fluoro-2-((5-(4-methyl-piperazin-1-yl)pyridin-2-yl)amino)pyrimidin-4-yl)-5′-methyl-5′,6′-dihydro-4′H-spiro[cyclobutane-1,7′-thieno[3,2-c]pyridin]-4′-one]: the values for the IC50 (on CDK6/Cyclin D1; at CDK4/Cyclin D1; in data set [1]) were at most 0.02 µM, at most 0.02 µM and 0.02 to 0.2 µM, respectively. The Kp at 4 h in data set [2] is at least 3.
As to `Cc1c(-c2nc(Nc3ccc(N4CCC5(CCN(C)C5)C4)cn3)ncc2F)sc2c1C(=O)N(C)CC21CCC1` (stereo not drawn) [Example 55, 2′-(5-Fluoro-2-((5-(7-methyl-2,7-diazaspiro[4.4]nonan-2-yl)pyridin-2-yl)amino)pyrimidin-4-yl)-3′,5′-dimethyl-5′,6′-dihydro-4′H-spiro[cyclobutane-1,7′-thieno[3,2-c]pyridin]-4′-one], the IC50 was at most 0.02 µM at CDK6/Cyclin D1, at most 0.02 µM at CDK4/Cyclin D1 and 0.02 to 0.2 µM in data set [1]. In data set [2], the Kp at 4 h was under 1.
Regarding `Cc1cnc(Nc2ccc(C3CCN(C)CC3)cn2)nc1-c1cc2c(s1)C1(CCC1)CN(C)C2=O` [Example 59, 5-Methyl-2-[5-methyl-2-[[5-(1-methylpiperidin-4-yl)pyridin-2-yl]amino]pyrimidin-4-yl]spiro[6H-thieno[3,2-c]pyridine-7,1′-cyclobutane]-4-one], the IC50 (at CDK6/Cyclin D1; at CDK4/Cyclin D1; in data set [1]) was at most 0.02 µM in each case. In data set [2], the Kp at 4 h lay within 1 to 3.
Consider `Cc1c(-c2nc(Nc3ccc(C4CCN(C)CC4)cn3)ncc2F)sc2c1C(=O)N(C)CC21CCCC1` [Example 63, 2′-(5-Fluoro-2-((5-(1-methyl-piperidin-4-yl)pyridin-2-yl)amino)pyrimidin-4-yl)-3′,5′-dimethyl-5′,6′-dihydro-4′H-spiro[cyclopentane-1,7′-thieno[3,2-c]pyridin]-4′-one], for which the figures for the IC50 (at CDK6/Cyclin D1; at CDK4/Cyclin D1; in data set [1]) were at most 0.02 µM, at most 0.02 µM and 0.02 to 0.2 µM, respectively. For the same compound, the Kp at 4 h in data set [2] is at least 3.
Take `CCN1CC2(C1)CN(c1ccc(Nc3ncc(F)c(-c4ccc5c(c4)C4(CCCC4)CN(C)C5=O)n3)nc1)C2` [Example 66, 6′-(2-((5-(6-Ethyl-2,6-diazaspiro[3.3]heptan-2-yl)pyridin-2-yl)amino)-5-fluoropyrimidin-4-yl)-2′-methyl-2′,3′-dihydro-1′H-spiro[cyclopentane-1,4′-isoquinolin]-1′-one]: the IC50 on CDK6/Cyclin D1 was 0.02 to 0.2 µM; on CDK4/Cyclin D1, at most 0.02 µM; in data set [1], 0.02 to 0.2 µM. Moreover, in data set [2], the Kp at 4 h lay within 1 to 3.
As for `CN1CCC(c2ccc(Nc3ncc(F)c(-c4ccc5c(c4)C4(CCCC4)CN(C)C5=O)n3)nc2)CC1` [Example 67, 6′-(5-Fluoro-2-((5-(1-methyl-piperidin-4-yl)pyridin-2-yl)amino)pyrimidin-4-yl)-2′-methyl-2′,3′-dihydro-1′H-spiro[cyclopentane-1,4′-isoquinolin]-1′-one], the IC50 was 0.02 to 0.2 µM on CDK6/Cyclin D1, at most 0.02 µM on CDK4/Cyclin D1 and 0.02 to 0.2 µM in data set [1]. Moreover, the Kp at 4 h in data set [2] was at least 3.
As to `CCN1CCC(c2ccc(Nc3ncc(F)c(-c4sc5c(c4C)C(=O)N(C)C54CC4)n3)nc2)C1` (stereo not drawn) [Example 71, 2′-[2-[[5-(1-Ethylpyrrolidin-3-yl)pyridin-2-yl]amino]-5-fluoropyrimidin-4-yl]-3′,5′-dimethylspiro[cyclopropane-1,6′-thieno[2,3-c]pyrrole]-4′-one], the results for the IC50 (at CDK6/Cyclin D1; at CDK4/Cyclin D1; in data set [1]) were at most 0.02 µM, at most 0.02 µM and 0.02 to 0.2 µM, respectively. The Kp at 4 h in data set [2] fell in the range of 1 to 3.
Take `CCN1CC2(C1)CN(c1ccc(Nc3ncc(F)c(-c4ccc5c(c4)C4(CCCC4)N(C)C5=O)n3)nc1)C2` [Example 78, 6′-(2-((5-(6-Ethyl-2,6-diazaspiro[3.3]heptan-2-yl)pyridin-2-yl)amino)-5-fluoropyrimidin-4-yl)-2′-methylspiro[cyclopentane-1,1′-isoindolin]-3′-one]: the values for the IC50 (on CDK6/Cyclin D1; at CDK4/Cyclin D1; in data set [1]) were 0.02 to 0.2 µM, at most 0.02 µM and 0.02 to 0.2 µM, respectively. In addition, the Kp at 4 h in data set [2] lay in the range of 1 to 3.
For the compound `CCN1CC2(CC(c3ccc(Nc4ncc(F)c(-c5sc6c(c5C)C(=O)N(C)C65CC5)n4)nc3)C2)C1` [Example 81, 2′-(2-((5-(2-Ethyl-2-azaspiro[3.3]heptan-6-yl)pyridin-2-yl)amino)-5-fluoropyrimidin-4-yl)-3′,5′-dimethylspiro[cyclopropane-1,6′-thieno[2,3-c]pyrrol]-4′(5′H)-one], the IC50 (at CDK6/Cyclin D1; at CDK4/Cyclin D1; in data set [1]) was at most 0.02 µM throughout. Further, the Kp at 4 h in data set [2] is under 1.

These data come from patent publication US20250163074A1, “CDK Inhibitors And Their Use As Pharmaceuticals” (Prelude Therapeutics Incorporated, priority 2020, published 2025).
